Tested on: patients with at least moderate pain after extraction of 3 third molar teeth
Test: Study 1: phase 2 single-dose dental pain study, analgesic efficacy and tolerability of 3 FDCs of IBU/APAP vs IBU 400 mg and placebo
Type: in vivo, human
Details: single oral dose, IBU dose 400 mg
Method: Study 1 was a phase 2, 12-hour, 5-arm, randomized, double-blind, parallel group, in-patient, placebo-controlled study designed to determine the overall analgesic efficacy of 3 different FDCs of IBU/APAP compared with IBU 400 mg and placebo.
All study procedures were in compliance with the ethical principles originating in or derived from the Declaration of Helsinki and with all International Council for Harmonization Good Clinical Practice Guidelines, as well as local regulatory requirements. All patients provided written informed consent. Eligible patients were healthy males or females aged 16-40 years, inclusive, who had undergone extraction of 3 third molar teeth (with at least 2 having been partial or complete bony mandibular impactions) and had developed at least moderate pain within 5 hours of the oral surgery. Other entry criteria included: use of only the following preoperative medications/anesthetics: topical benzocaine, a short-acting parenteral local anesthetic (mepivacaine or lidocaine) with or without a vasoconstrictor and/or nitrous oxide; no contraindications to the study or rescue medications; and being sufficiently reliable, cooperative, and intelligent to record the requested information on the analgesic questionnaire form.
Upon experiencing at least moderate pain, patients were randomized 1:3:3:3:3 to receive a single oral dose of placebo; IBU 400 mg; FDC IBU/APAP 200 mg/500 mg; FDC IBU/APAP 250 mg/500 mg; or FDC IBU/APAP 300 mg/500 mg.
Patients could receive 2 additional doses of rescue medication at the study center. Patients were permitted to take rescue medication at any time but were encouraged to wait at least 1 hour after taking study medication to allow time for the medication to exert its effect. Patients who took rescue medication remained at the study site for the full duration of the study and continued to perform assessments.
At baseline, patients rated their pain severity using a categorical and a numerical pain severity rating (PSR) scale. The categorical PSR was a 4-point scale (none, mild, moderate, severe), with each category assigned a value from 0-3, respectively. The achievement of moderate pain at baseline was confirmed by a score of >50 mm on a 100-mm visual analog pain scale. Additionally, pain was assessed using an 11-point numerical PSR (0-10; 0=none to 10=worst possible pain).
Following the administration of study medication, patients were followed and evaluated on site for 12 hours. During that time, study participants provided self-ratings of pain severity (on both categorical and numerical PSR scales as described above) and pain relief: using a 5-point categorical pain relief rating (PRR) scale (0=none, 1=a little, 2=some, 3=a lot, and 4=complete) at 0.25, 0.5, 1, 1.5, 2, 3, 4, 5, 6, 7, 8, 9, 10, 11, and 12 hours post-treatment, after taking study medication, immediately before taking rescue medication, or at time of study withdrawal (if either occurred).
Additional patient assessments included time to first perceptible relief (TFPR) and time to meaningful pain relief (TMPR) using the double-stopwatch method, in which the first stopwatch was pressed by the patient when pain relief was first perceived, and the second when that relief became meaningful. Duration of pain relief was measured by the time to treatment failure (i.e., the time of first dose of rescue medication or dropout due to lack of efficacy). At 12 hours or immediately before taking rescue medication for the first time, patients also provided a Patient Global Evaluation based on a 6-point categorical scale ranging from 0 (very poor) to 5 (excellent).
The primary endpoint was the time-weighted sum of pain relief and pain intensity difference (PID) scores from baseline (time 0) through 8 hours (SPRID[4]0-8) after dosing based on PRR and categorical PSR. […]

CC(C)Cc1ccc(C(C)C(=O)O)cc1 (centres unmarked) [IBU, 2-(4-isobutylphenyl) propionic acid]
Alveolar osteitis, treatment-emergent adverse event, %: (2.2) % | Dizziness, treatment-emergent adverse event, %: (7.6) % | Feeling hot, treatment-emergent adverse event, %: (4.3) % | Median time to first perceptible relief (TFPR): 24.9 min | Median time to meaningful relief (TMPR): 56.2 min | Median time to treatment failure (duration of relief): 10.4 h | Nausea, treatment-emergent adverse event, %: (23.9) % | TOTPAR0-2, mean (time-weighted sum of pain relief rating scores over 0-2 hours): 4.0 | Tension headache, treatment-emergent adverse event, %: (4.3) % | Tremor, treatment-emergent adverse event, %: (2.2) % | Vomiting, treatment-emergent adverse event, %: (15.2) % | TOTPAR0-6, mean (0-6 hours): 14.3 | TOTPAR0-8, mean (0-8 hours): 18.4 | TOTPAR0-12, mean (0-12 hours): 23.9

Source: US11918693B2, “Ibuprofen and acetaminophen tablet” (GlaxoSmithKline Consumer Healthcare Holdings (US) LLC, priority 2019, dated 2024)
